The values that follow come from US20240009191A1, “METHOD AND COMPOSITION FOR THE TREATMENT OF DISEASE” (DIMERIX BIOSCIENCE PTY LTD, priority 2019, published 2024).

The test addresses T1, AT1R-CXCR2 heteromer (Homo sapiens, UniProt P25025+P30556).
T1 sequence (P25025 1-360): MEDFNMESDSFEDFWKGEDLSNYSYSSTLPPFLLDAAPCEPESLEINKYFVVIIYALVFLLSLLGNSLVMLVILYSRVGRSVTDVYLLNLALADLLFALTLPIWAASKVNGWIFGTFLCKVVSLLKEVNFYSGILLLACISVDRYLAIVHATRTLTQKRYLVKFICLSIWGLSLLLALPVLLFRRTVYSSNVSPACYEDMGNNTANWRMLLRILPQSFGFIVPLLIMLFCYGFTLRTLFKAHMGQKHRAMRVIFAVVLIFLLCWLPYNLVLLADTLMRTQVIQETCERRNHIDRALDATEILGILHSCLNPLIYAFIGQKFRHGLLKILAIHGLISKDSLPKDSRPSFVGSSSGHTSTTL
T1 sequence (P30556 1-359): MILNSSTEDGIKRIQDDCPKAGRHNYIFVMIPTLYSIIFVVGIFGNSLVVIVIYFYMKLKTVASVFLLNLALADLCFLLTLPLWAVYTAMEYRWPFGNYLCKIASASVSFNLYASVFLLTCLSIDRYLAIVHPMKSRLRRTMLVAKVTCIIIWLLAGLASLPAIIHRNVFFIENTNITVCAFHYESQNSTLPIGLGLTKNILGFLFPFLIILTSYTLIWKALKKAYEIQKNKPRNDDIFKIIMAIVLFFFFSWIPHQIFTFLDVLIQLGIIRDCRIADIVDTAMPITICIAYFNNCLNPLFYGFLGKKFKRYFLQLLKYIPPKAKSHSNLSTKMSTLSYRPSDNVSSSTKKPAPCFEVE
In words: BRET Gi coupling (Receptor-HIT), CXCR2/Rluc8, Venus/mGsi and HA-AT1R, HEK293FT cells. The test is classed as cell-based. On the procedure: HEK293FT cells were seeded in 6-well plates at a density of approximately 700,000 cells/well and maintained at 37° C., 5% CO2 in Complete Media (DMEM containing 0.3 mg/ml glutamine, 100 IU/ml penicillin and 100 μg/ml streptomycin (Gibco/Thermo Fisher)) supplemented with 10% fetal calf serum (FCS; Bovogen). […] BRET measurements were taken at 37° C. using the LUMlstarTM or CLARIOstarTM (BMG Labtech). Filtered light emissions were measured for 1 s in each of the 'donor wavelength window' (460-490 nm for LUMlstarTM or 410-490 nm for CLARIOstarTM) and 'acceptor wavelength window' (520-550 nm for LUMlstarTM or 520-620 nm for CLARIOstarTM). The BRET signal observed between interacting proteins is normalized by subtracting the background BRET ratio. This can be done in one of two ways (see Pfleger et al. (2006) Cell Signal 18:1664-1670; Pfleger et al. (2006) Nat Protoc 1:336-344): 1) the ratio of the 520-550 nm or 520-620 nm emission over the 460-490 nm or 410-490 nm emission for a cell sample containing only the donor construct is subtracted from the same ratio for a sample containing the interacting acceptor and donor fusion proteins; 2) the ratio of the 520-550 nm or 520-620 nm emission over the 460-490 nm or 410-490 nm emission for a cell sample treated with vehicle is subtracted from the same ratio for a second aliquot of the same cell sample treated with ligand. […]
A general note: Bioluminescence resonance energy transfer reports proximity on the nanometre scale.

Angiotensin II [AngII]: the “ligand-induced BRET signal, CXCR2/Rluc8 and Venus/mGsi” value is given as “approximately 0.05”.
